Measured values: ChEMBL document CHEMBL1134697, “Synthesis and antiproliferative activity of epoxy and bromo compounds derived from estrone” (Bioorg Med Chem Lett, 2001)

What was measured:
[1] = tested on: HeLa; experiment: Antiproliferative activity was determined after 48 hr exposure to human cervix carcinoma HeLa cells; format: functional, cell-based
[2] = Antiproliferative activity was determined after 72 hr exposure to normal human peripheral blood mononuclear cells (PBMC) in the presence of 5 ug/mL Phytohemagglutinine; format: functional
[3] = tested on: K562; experiment: Antiproliferative activity was determined after 48 hr exposure to human myelogenous leukemia K562 cells; format: functional, cell-based; conditions: K562, 48 h
[4] = Antiproliferative activity was determined after 48 hr exposure to human melanoma Fem-X cell; format: functional, cell-based
[5] = Antiproliferative activity was determined after 72 hr exposure to normal human peripheral blood mononuclear cells (PBMC) in the absence of 5 ug/mL Phytohemagglutinine; format: functional
[6] = tested on: K562; experiment: Antiproliferative activity was determined after 72 hr exposure to human myelogenous leukemia K562 cells; format: functional, cell-based; conditions: K562, 72 h
[7] = Antiproliferative activity was determined after 72 hr exposure to human melanoma Fem-x cells; format: functional, cell-based
[8] = tested on: P388; experiment: Concentration required for antiproliferative activity against P388 cell survival by 50%; format: functional, cell-based; conditions: Mus musculus

Compound: C[C@]12CCC3[C@@H](CCC4=C(Br)C(=O)C=C[C@@]43O)[C@@H]1CCC2=O (some centres undefined)
- IC50 [1]: 6.17 µM
- IC50 [2]: 5.2 µM
- IC50 [3]: 13.7 µM
- IC50 [4]: 14.5 µM
- IC50 [5]: 12.3 µM
- IC50 [6]: 5.9 µM
- IC50 [7]: 4.6 µM

Compound: C[C@]12CCC3[C@@H](CC[C@]45O[C@H]4C(=O)C(Br)=C[C@]35O)[C@@H]1CCC2=O (some centres undefined)
- IC50 [1]: 2.5 µM
- IC50 [2]: 1.3 µM
- IC50 [3]: 1.2 µM
- IC50 [4]: 6 µM
- IC50 [5]: 2.9 µM
- IC50 [6]: 0.7 µM
- IC50 [7]: 1 µM

Compound: O=C1C(Br)=C[C@H](O)[C@H]2O[C@@H]12
- IC50 [8]: 0.049 µM

Compound: C[C@]12CC[C@H]3[C@@H](CC[C@]45O[C@H]4C(=O)C=C[C@]35O)[C@@H]1CCC2=O
- IC50 [1]: 5.73 µM
- IC50 [3]: 6.22 µM
- IC50 [4]: 7.1 µM

Compound: C[C@]12CCC3C(CC[C@]45O[C@H]4[C@@H](O)C=C[C@]35O)C1CCC2O (some centres undefined)
- IC50 [1]: > 270 µM
- IC50 [3]: > 270 µM
- IC50 [4]: > 270 µM

Compound: C[C@]12CCC3C(CCC4=CC(=O)C=C[C@@]43O)C1CCC2=O (some centres undefined)
- IC50 [1]: > 100 µM
- IC50 [3]: > 100 µM
- IC50 [4]: > 100 µM
